What is called solubility is the dissolved amount per volume that the medium holds. A word on the pIC50: it is −log10 of the IC50, conventionally taken in molar units.

The record followed here is publication PMC6222789, “CF3-Substituted Mollugin 2-(4-Morpholinyl)-ethyl ester as a Potential Anti-inflammatory Agent with Improved Aqueous Solubility and Metabolic Stability” (Molecules : A Journal of Synthetic Chemistry and Natural …, 2018).

Series [1] can be described thus: Plasma stability, human plasma. The class given is in vitro ADME. The note with it: 37 °C, 1 μM. The method, then: The plasma stability assay was performed by incubation of human or rat plasma with a test compound in a final concentration of 1 μM for 120 min at 37 °C. The incubation was terminated by addition of 40 μL of ice-cold acetonitrile and vortexing for 5 min. The precipitated proteins were removed by centrifugation at 14,000× g for 5 min at 4 °C. Aliquots of the supernatant were injected onto a Shimadzu Nexera XR LC system. Percentages of the parent compound remaining were calculated by comparing peak areas using the Xcalibur software (version 1.6.1, Waltham, MA, USA).

Series [2] is described as follows: Determination of water solubility at 10 mM. The note with it: aqueous buffer, thermodynamic from solid, sodium phosphate buffer 0.1 M, pH 7.4, room temperature. The class given is physicochemical. The method, then: Water solubility (>10 mM) was determined using the following procedure at room temperature. The test compound was added to a vial containing sodium phosphate buffer, 0.1 M, pH 7.4 (1 mL) to make a 10 mM mixture, and the mixture was equilibrated during 10 min of sonication and then visually checked immediately and after 24 h for any undissolved parts or precipitation of the sample. If no precipitation was shown after 24 h, the aqueous solution was filtered (Syringe filter; PTFE; pore size: 0.45 μm; 25 mm DI) and subjected to LC-MS to confirm the reagent.

For a further series, the target named is T1, hERG channel (Homo sapiens, UniProt Q12809).
T1 construct: purchased Invitrogen PV5365
T1 sequence (Q12809 whole entry): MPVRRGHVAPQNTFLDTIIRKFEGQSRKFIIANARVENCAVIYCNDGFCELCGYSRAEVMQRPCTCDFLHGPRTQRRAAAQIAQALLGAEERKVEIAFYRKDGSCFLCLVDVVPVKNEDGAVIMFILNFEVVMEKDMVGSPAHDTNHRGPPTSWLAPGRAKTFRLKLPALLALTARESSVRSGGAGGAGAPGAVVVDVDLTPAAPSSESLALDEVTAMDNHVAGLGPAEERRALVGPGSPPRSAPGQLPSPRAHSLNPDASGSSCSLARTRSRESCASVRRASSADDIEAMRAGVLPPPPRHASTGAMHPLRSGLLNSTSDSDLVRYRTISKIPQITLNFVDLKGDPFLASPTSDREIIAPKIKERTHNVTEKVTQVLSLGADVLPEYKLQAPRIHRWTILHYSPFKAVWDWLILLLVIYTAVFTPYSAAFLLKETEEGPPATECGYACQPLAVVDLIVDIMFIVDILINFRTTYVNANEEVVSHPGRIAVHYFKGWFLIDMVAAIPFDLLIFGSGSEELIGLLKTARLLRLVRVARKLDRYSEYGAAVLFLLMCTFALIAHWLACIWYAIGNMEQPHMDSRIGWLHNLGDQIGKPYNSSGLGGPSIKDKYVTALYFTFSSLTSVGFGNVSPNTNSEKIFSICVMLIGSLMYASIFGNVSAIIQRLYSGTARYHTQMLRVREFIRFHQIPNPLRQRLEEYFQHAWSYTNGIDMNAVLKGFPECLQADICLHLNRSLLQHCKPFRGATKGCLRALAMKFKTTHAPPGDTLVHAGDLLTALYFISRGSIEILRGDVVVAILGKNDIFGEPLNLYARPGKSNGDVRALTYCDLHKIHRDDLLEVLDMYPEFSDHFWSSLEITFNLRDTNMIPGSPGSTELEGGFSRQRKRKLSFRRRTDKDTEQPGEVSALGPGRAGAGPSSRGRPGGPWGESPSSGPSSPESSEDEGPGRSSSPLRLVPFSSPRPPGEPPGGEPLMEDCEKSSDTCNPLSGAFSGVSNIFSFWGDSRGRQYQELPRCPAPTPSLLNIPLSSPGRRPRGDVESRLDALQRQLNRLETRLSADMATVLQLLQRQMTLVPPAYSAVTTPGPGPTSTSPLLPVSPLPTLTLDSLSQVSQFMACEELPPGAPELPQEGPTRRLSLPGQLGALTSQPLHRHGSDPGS
Kind of series: hERG channel binding assay (fluorescence polarization). The method, then: hERG channel binding assay was performed using Invitrogen’s hERG Fluorescence Polarization Assay kit (PV5365) with Synergy Neo plate reader (BioTek, Winooski, VT, USA). The binding assay was carried out according to the kit manufacturer’s instructions.
(Block of hERG is tested as a sign of cardiac risk.)

pIC50: −log10 of the molar value.

As for `CC1(C)C=Cc2c(C(=O)OCCN3CCOCC3)c(O)c3cc(C(F)(F)F)ccc3c2O1` [15c, 2-Morpholinoethyl 6-hydroxy-2,2-dimethyl-8-(trifluoromethyl)-2H-benzo[h]chromene-5-carboxylate], the “Plasma Stability (% Remain, 2 h) Human” value in series [1] was found to be 100 % Remain. The compound also gave a solubility at 24 h in series [2] greater than 10 mM.
On to `CC1(C)C=Cc2c(C(=O)OCCN3CCOCC3)c(O)c3ccccc3c2O1` [6d, 2-Morpholinoethyl 6-hydroxy-2,2-dimethyl-2H-benzo[h]chromene-5-carboxylate], for which, in series [1], the “Plasma Stability (% Remain, 2 h) Human” value is on record as 97 % Remain. Moreover, the pIC50 at hERG channel is less than 5.00.
